# Article PMC10298626 (International Journal of Molecular Sciences, 2023)
# How the values were obtained:
# TNF-α = TNF-α production (ELISA) in LPS-stimulated RAW264.7 cells; format: cell-based, Mouse; details: 20, 40, and 80 μM; 2 h pretreatment, LPS 500 ng/mL 20 h; concentration-dependent
# Procedure: (§1) Macrophages stimulated by pathogens and cytokines are activated and play an important role in regulating the immune response, inflammatory response, and metabolism. LPS-activated RAW264.7 cells were treated with 20, 40, or 80 μM of coumarin derivative 2 and cultured for 24 h, and the levels of TNF-α and IL-6 in the culture medium were analyzed.
# (§2) RAW264.7 cells were seeded into 96-well plates and cultured for 24 h. After 2 h of treatment with 20, 40, or 80 μM of coumarin compound derivative 2, the cells were incubated with LPS (500 ng/mL) for 20 h. ELISA kits (R & D Systems, Minneapolis, MN, USA) were used to collect and analyze the cell supernatants for TNF-α and IL-6.
# (§3) Figure 3 Effects of coumarin derivative 2 on IL-6 and TNF-α production and mRNA expression in LPS-stimulated RAW264.7 cells. (a) Effect of coumarin derivative 2 on TNF-α and IL-6 production in RAW264.7 cells. The RAW264.7 cells (1 × 10^5/well, 96-well plates) were pretreated with coumarin derivative 2 (20, 40, and 80 μM) for 2 h and incubated with LPS (500 ng/mL) for 20 h. An ELISA kit was used to analyze cell supernatants for TNF-α and IL-6. (b) Effect of coumarin derivative 2 on mRNA expression of IL-6 and TNF-α in RAW264.7 cells. […] IL-6 and TNF-α mRNA expression levels were measured via a real-time quantitative reverse transcription polymerase chain reaction.
# iNOS = iNOS protein expression (immunoblotting) in LPS-stimulated RAW264.7 cells; format: cell-based, Mouse; details: 20, 40, and 80 μM pretreatment 2 h; LPS 500 ng/mL 24 h
# Procedure: (§4) RAW264.7 cells were seeded into 6-well plates (2 × 10^6 cells/well) and incubated for 24 h. The cells were incubated with 20, 40, and 80 μM of coumarin derivative 2 for 2 h, and then LPS (500 ng/mL) was added for 30 min (for phosphorylation of ERK, JNK, p38, and p65) and 24 h (for protein expression of iNOS).
# The cells were washed with PBS and lysed with radioimmunoprecipitation assay buffer containing 1 mM dithiothreitol (Wako, Tokyo, Japan), phosphatase inhibitor cocktail, 1 mM phenylmethylsulfonylfluoride, 1 mM sodium orthovanadate (Sigma), and 10 mM β-glycerophosphate (Sigma). The extracted proteins were centrifuged at 13,000× g rpm, separated via sodium dodecyl sulfate polyacrylamide gel electrophoresis, and transferred to polyvinylidene fluoride membranes. […] For detection, the antibodies were developed with Super Signal® West Femto Substrate (ThermoFisher, Waltham, MN, USA) and analyzed on a Fusion Solo Chemiluminescence System (Vilber Lourmat, Paris, France) ECL detection system.
# Figure 4 Effect of coumarin derivative 2 on iNOS protein expression in LPS-stimulated RAW264.7 cells. […] (c) RAW264.7 cells (2.0 × 10^6 cells/6 cm dish) were pretreated with coumarin derivative 2 (20, 40, and 80 μM) for 2 h and incubated with LPS (500 ng/mL) for 6 h. iNOS mRNA expression levels were measured via a real-time quantitative reverse transcription polymerase chain reaction. […]
# p38 = test: LPS-induced phosphorylation of p38 (immunoblotting) in RAW264.7 cells; format: cell-based, Mouse; details: 20, 40, and 80 μM pretreatment 2 h; LPS 500 ng/mL 30 min
# Procedure: as §4
# (§5) The cells were washed with PBS and lysed with radioimmunoprecipitation assay buffer containing 1 mM dithiothreitol (Wako, Tokyo, Japan), phosphatase inhibitor cocktail, 1 mM phenylmethylsulfonylfluoride, 1 mM sodium orthovanadate (Sigma), and 10 mM β-glycerophosphate (Sigma). The extracted proteins were centrifuged at 13,000× g rpm, separated via sodium dodecyl sulfate polyacrylamide gel electrophoresis, and transferred to polyvinylidene fluoride membranes. Nonspecific proteins were blocked by adding 5% skim milk. After blocking, primary antibodies were incubated overnight at 4 °C. After washing with the PBS-T buffer, the secondary antibodies were treated at room temperature for 2 h. For detection, the antibodies were developed with Super Signal® West Femto Substrate (ThermoFisher, Waltham, MN, USA) and analyzed on a Fusion Solo Chemiluminescence System (Vilber Lourmat, Paris, France) ECL detection system.
# (§6) Figure 5 Inhibitory effects of coumarin derivative 2 on LPS-induced phosphorylation of MAPKs and NF-κB p65 in RAW264.7 cells. […]
# in vitro = format: cell-based; details: mouse, RAW264.7 cells, then LPS (500 ng/mL) 20 h, read-out: Cell viability, Average (%)
# Procedure: To investigate the anti-inflammatory activity of coumarin derivatives, cell viability was analyzed by treating RAW264.7 cells with 23 types of coumarin derivatives at concentrations of 20, 40, and 80 μM for 2 h and with LPS for 20 h.
# Mouse macrophage RAW264.7 cells were purchased from the Korea Cell Line Bank (Seoul, Republic of Korea) and cultured in Dulbecco’s Modified Eagle Medium (Corning, NY, USA) containing 10% fetal bovine serum and 1% penicillin/streptomycin at 37 °C and 5% CO2. The medium was changed every 2 days and subcultured when the cells grew > 80%.
# EZ-Cytox cell viability assay kit (Dogen, Suwon, Republic of Korea) was used to measure cell viability according to the manufacturer’s instructions. RAW264.7 cells were seeded into a 96-well plate (1 × 10^5 cells/well) and treated with coumarin derivatives at concentrations of 20, 40, and 80 μM. After 2 h, the cells were treated with LPS (500 ng/mL) and cultured for 24 h in a 37 °C, 5% CO2 incubator. The culture supernatant was treated with 10% EZ-Cytox reagent, and a microplate reader was used to measure the absorbance at 450 nm.
# IL-6 = IL-6 production (ELISA) in LPS-stimulated RAW264.7 cells; format: cell-based, Mouse; details: 20, 40, and 80 μM; 2 h pretreatment, LPS 500 ng/mL 20 h; concentration-dependent
# Procedure: as §1, §2, §3
# JNK = test: LPS-induced phosphorylation of JNK (immunoblotting) in RAW264.7 cells; format: cell-based, Mouse; details: 20, 40, and 80 μM pretreatment 2 h; LPS 500 ng/mL 30 min
# Procedure: as §4, §5, §6
structure (smiles),measurement,setting,value
N#CC1=C(N)Oc2c(c(=O)oc3ccccc23)C1c1cccc(F)c1 (centres unmarked) [Coumarin derivative 2],LPS-induced TNF-α level,TNF-α,significantly reduced
same,iNOS expression (immunoblot),iNOS,inhibited
same,Phosphorylation of p38,p38,inhibited
same,"viability at 22 h, 20 μM",in vitro; 20 μM for 2 h,106%
same,"viability at 22 h, 40 μM",in vitro; 40 μM for 2 h,97.1%
same,"viability at 22 h, 80 μM",in vitro; 80 μM for 2 h,101%
same,LPS-induced IL-6 level,IL-6,significantly reduced
same,Phosphorylation of JNK,JNK,inhibited
